Measurements reported in US20240109853A1 (Shanghai Yao Yuan Biotechnology Co., Ltd., priority 2020, published 2024).

Assays:
ALPK1 = ALPK1 (Homo sapiens (Human), UniProt Q96QP1); assay: ALPK1 in vitro kinase assay (HTRF of TIFA phosphorylation); assay type: biochemical
[1] = test system: ALPK1-dependent NFκB reporter gene activation in HEK293 cells stably expressing an NF-kB reporter (G9 cells); assay: NFκB gene reporter alkaline phosphatase assay; assay type: cell-based; details: Homo sapiens, HEK293; read-out: NFkB assay IC50
In short: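 HEK293 G9 cells stably carrying an NF-kB alkaline phosphatase reporter were seeded at 10,000 cells/well in Freestyle 293 medium and attached overnight. They were pretreated with serially diluted compound for 30 min, then stimulated with D-glycero-D-manno-6-fluoro-heptose-1β-S-ADP. Reporter phosphatase was read with pNPP; IC50 from logistic fit.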

Chain of ALPK1 (Q96QP1 whole entry): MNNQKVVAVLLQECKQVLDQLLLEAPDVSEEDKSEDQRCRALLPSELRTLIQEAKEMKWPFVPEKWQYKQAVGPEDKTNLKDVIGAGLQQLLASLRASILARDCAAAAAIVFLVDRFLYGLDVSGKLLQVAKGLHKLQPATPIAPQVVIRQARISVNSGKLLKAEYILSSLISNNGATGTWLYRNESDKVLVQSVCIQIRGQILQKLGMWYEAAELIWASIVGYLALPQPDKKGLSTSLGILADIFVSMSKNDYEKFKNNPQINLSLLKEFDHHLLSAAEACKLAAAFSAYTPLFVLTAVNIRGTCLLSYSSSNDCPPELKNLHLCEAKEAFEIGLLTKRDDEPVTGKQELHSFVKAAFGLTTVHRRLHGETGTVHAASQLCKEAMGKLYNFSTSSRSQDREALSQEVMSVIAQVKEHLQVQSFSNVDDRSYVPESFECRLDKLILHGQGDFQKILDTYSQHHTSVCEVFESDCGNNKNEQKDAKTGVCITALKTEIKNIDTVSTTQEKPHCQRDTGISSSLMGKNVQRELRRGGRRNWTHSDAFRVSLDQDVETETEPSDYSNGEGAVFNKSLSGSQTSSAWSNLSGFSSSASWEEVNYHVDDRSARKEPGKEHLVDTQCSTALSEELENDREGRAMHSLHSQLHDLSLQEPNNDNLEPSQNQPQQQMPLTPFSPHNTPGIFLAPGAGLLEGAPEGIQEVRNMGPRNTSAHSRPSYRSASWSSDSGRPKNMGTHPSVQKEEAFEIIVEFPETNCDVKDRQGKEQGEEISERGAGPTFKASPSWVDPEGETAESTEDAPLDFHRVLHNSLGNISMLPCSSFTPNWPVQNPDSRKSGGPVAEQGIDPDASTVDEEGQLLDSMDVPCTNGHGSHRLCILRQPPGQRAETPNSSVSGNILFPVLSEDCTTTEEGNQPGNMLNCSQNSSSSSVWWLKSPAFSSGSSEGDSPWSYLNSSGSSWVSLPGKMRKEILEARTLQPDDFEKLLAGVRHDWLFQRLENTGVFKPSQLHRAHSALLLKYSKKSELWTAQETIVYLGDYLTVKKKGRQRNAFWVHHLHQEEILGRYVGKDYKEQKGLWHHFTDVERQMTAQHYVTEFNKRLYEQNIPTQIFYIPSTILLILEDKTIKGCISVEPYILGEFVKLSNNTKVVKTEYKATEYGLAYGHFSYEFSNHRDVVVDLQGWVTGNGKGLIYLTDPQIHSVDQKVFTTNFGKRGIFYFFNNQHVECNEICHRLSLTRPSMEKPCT

Structure (SMILES) | IC50 (ALPK1) | IC50 [1]
CC(c1ccc(Br)cc1)c1csc(NC(=O)NCc2ccc(N3CCNCC3)cc2)n1 (stereo not shown) [Example A044, 1-(4-(1-(4-bromophenyl)ethyl)thiazol-2-yl)-3-(4-(piperazin-1-yl)benzyl)urea] | 0.147 µM | 1.11 µM
CNS(=O)(=O)[C@H]1C[C@@H](CNC(=O)Nc2nc(C(C)(C)c3ccc(OC)cc3)cs2)C1 [Example A149, rac-(1s,3s)-3-((3-(4-(2-(4-methoxyphenyl)propan-2-yl)thiazol-2-yl)ureido)methyl)-N-methylcyclobutane-1-sulfonamide] | 0.155 µM | 9.4 µM
CC(C)(c1ccc(Br)cc1)c1csc(NC(=O)NCc2ccc(N3CCC(N)CC3)cc2)n1 [Example A204, 1-(4-(4-aminopiperidin-1-yl)benzyl)-3-(4-(2-(4-bromophenyl)propan-2-yl)thiazol-2-yl)urea] | 0.009 µM | 1.89 µM
CC(C)(c1ccc(Br)cc1)c1csc(NC(=O)NCCCN2CCOCC2)n1 [Example A127, 1-(4-(2-(4-bromophenyl)propan-2-yl)thiazol-2-yl)-3-(3-morpholinopropyl)urea] | 0.113 µM | 0.94 µM
COc1ccc(C(C)(C)c2csc(NC(=O)NCc3ccc(NC4CCN(C)CC4)nc3)n2)cc1 [Example A019, 1-(4-(2-(4-methoxyphenyl)propan-2-yl)thiazol-2-yl)-3-((6-((1-methylpiperidin-4-yl)amino)pyridin-3-yl)methyl)urea] | 0.032 µM | 1.29 µM
COc1ccc(C(C)(C)c2csc(NC(=O)NCc3cnc(N4CCN(CCO)CC4)c(F)c3)n2)cc1 [Example A216, 1-((5-fluoro-6-(4-(2-hydroxyethyl)piperazin-1-yl)pyridin-3-yl)methyl)-3-(4-(2-(4-methoxyphenyl)propan-2-yl)thiazol-2-yl)urea] | 0.061 µM | 1.43 µM
CC(C)(c1ccc(Cl)c(F)c1)c1csc(NC(=O)NCc2ccc(N3CCNCC3)cc2)n1 [Example A031, 1-(4-(2-(4-chloro-3-fluorophenyl)propan-2-yl)thiazol-2-yl)-3-(4-(piperazin-1-yl)benzyl)urea] | 0.345 µM | 1.45 µM
C#CC(C)(c1ccc(Cl)cc1)c1csc(NC(=O)NC2CCN(Cc3ccc(C)cc3)C2)n1 (stereo not shown) [Example A309, 1-(4-(2-(4-chlorophenyl)but-3-yn-2-yl)thiazol-2-yl)-3-(1-(4-methylbenzyl)pyrrolidin-3-yl)urea] | 1.41 µM | 4.12 µM
C#C[C@@](C)(c1ccc(Cl)cc1)c1csc(NC(=O)NC2(CO)CC2)n1 [Example A295, 1-(4-(2-(4-chlorophenyl)but-3-yn-2-yl)thiazol-2-yl)-3-(1-(hydroxymethyl)cyclopro-pyl)urea] | 0.522 µM | 1.79 µM
C#CC(C)(c1ccc(Cl)cc1)c1csc(NC(=O)NCCC#N)n1 (stereo not shown) [Example A024, 1-(4-(2-(4-chlorophenyl)but-3-yn-2-yl)thiazol-2-yl)-3-(2-cyanoethyl)urea] | 0.013 µM | 1.25 µM
O=C(NCCO)Nc1nc(C2(c3ccc(Br)cc3)CCC2)cs1 [Example A158, 1-(4-(1-(4-bromophenyl)cyclobutyl)thiazol-2-yl)-3-(2-hydroxyethyl)urea] | 0.067 µM | 2.86 µM
COc1ccc(C(C)(C)c2csc(NC(=O)NC3(c4ccc(N5CCNCC5)cc4)CC3)n2)cc1 [Example A240, 1-(4-(2-(4-methoxyphenyl)propan-2-yl)thiazol-2-yl)-3-(1-(4-(piperazin-1-yl)phenyl)cyclopropyl)u-rea] | 0.097 µM | 1.88 µM
CC(C)(c1ccc(Br)cc1)c1csc(NC(=O)NCCF)n1 [Example A020, 1-(4-(2-(4-bromophenyl)propan-2-yl)thiazol-2-yl)-3-(2-fluoroethyl)urea] | 0.144 µM | 6.79 µM
CC(C)(c1ccc(Br)cc1)c1csc(NC(=O)NCc2ccc(N3CCNCC3)c(N)c2)n1 [Example A098, 1-(3-amino-4-(piperazin-1-yl)benzyl)-3-(4-(2-(4-bromophenyl)propan-2-yl)thiazol-2-yl)urea] | 0.031 µM | 1.07 µM
C#CC(CC)(c1ccc(Br)cc1)c1csc(NC(=O)NCCO)n1 (stereo not shown) [Example A157, 1-(4-(3-(4-bromophenyl)pent-1-yn-3-yl)thiazol-2-yl)-3-(2-hydroxyethyl)urea] | 0.022 µM | 1.36 µM
COc1ccc(C(C)(C)c2csc(NC(=O)NCCS(C)(=O)=O)n2)cc1 [Example A013, 1-(4-(2-(4-methoxyphenyl)propan-2-yl)thiazol-2-yl)-3-(2-(methylsulfonyl)ethyl)urea] | 0.316 µM | 2.97 µM
C#CC(C)(c1ccc(Br)cc1)c1csc(NC(N)=O)n1 (stereo not shown) [Example A162, 1-(4-(2-(4-bromophenyl)but-3-yn-2-yl)thiazol-2-yl)urea] | 0.038 µM | 0.18 µM
COc1ccc(C(C)(C)c2csc(NC(=O)NCCCS(=O)(=O)N3CCNCC3)n2)cc1 [Example A230, 1-(4-(2-(4-methoxyphenyl)propan-2-yl)thiazol-2-yl)-3-(3-(piperazin-1-ylsulfonyl)propyl)urea] | 0.127 µM | 3.01 µM
C#CC(C)(c1ccc(Cl)cc1)c1csc(NC(=O)N2CCC(O)C2)n1 (stereo not shown) [Example A269, N-(4-(2-(4-chlorophenyl)but-3-yn-2-yl)thiazol-2-yl)-3-hydroxypyrrolidine-1-carboxamide] | 0.881 µM | 1.26 µM
C#CC(C)(c1ccc(Cl)cc1)c1csc(NC(=O)N2CCC(CO)CC2)n1 (stereo not shown) [Example A264, N-(4-(2-(4-chlorophenyl)but-3-yn-2-yl)thiazol-2-yl)-4-(hydroxymethyl)piperidine-1-carboxamide] | 1.37 µM | 2.81 µM
C#CC(C)(c1ccc(Br)cc1)c1csc(NC(=O)N2CC(c3ccc(N4CCNCC4)cc3)C2)n1 (stereo not shown) [Example A237, N-(4-(2-(4-bromophenyl)but-3-yn-2-yl)thiazol-2-yl)-3-(4-(piperazin-1-yl)phenyl)azetidine-1-carboxamide] | 0.007 µM | 0.61 µM
COc1ccc(C(C)(C)c2csc(NC(=O)NCCS(N)(=O)=O)n2)cc1 [Example A137, 2-(3-(4-(2-(4-methoxyphenyl)propan-2-yl)thiazol-2-yl)ureido)ethanesulfona-mide] | 0.042 µM | 1.96 µM
CC(C)(c1ccc(Br)cc1)c1csc(NC(=O)NCCCN2CCNCC2)n1 [Example A102, 1-(4-(2-(4-bromophenyl)propan-2-yl)thiazol-2-yl)-3-(3-(piperazin-1-yl)propyl)urea] | 0.09 µM | 0.71 µM
CC(C)(c1ccc(Br)cc1)c1csc(NC(=O)NCc2ccc(N3CCC(N)C3)cc2)n1 (stereo not shown) [Example A032, 1-(4-(3-aminopyrrolidin-1-yl)benzyl)-3-(4-(2-(4-bromophenyl)propan-2-yl)thiazol-2-yl)urea] | 0.291 µM | 0.58 µM
COc1ccc(C(C)(C)c2csc(NC(=O)NCc3cnc(N4CCC(N)C4)nc3)n2)cc1 (stereo not shown) [Example A187, 1-((2-(3-aminopyrrolidin-1-yl)pyrimidin-5-yl)methyl)-3-(4-(2-(4-methoxyphenyl)propan-2-yl)thiazol-2-yl)urea] | 0.007 µM | 0.7 µM
C#C[C@](C)(c1ccc(Cl)cc1)c1csc(NC(=O)N2CC(CO)C2)n1 [Example A257, (R)-N-(4-(2-(4-chlorophenyl)but-3-yn-2-yl)thiazol-2-yl)-3-(hydroxymethyl)azetidine-1-carboxamide] | 1.55 µM | 2.01 µM
